# Measurements published in patent US9085570B2, “Substituted benzamides and their uses” (The Board of Trustees of the Leland Stanford Junior …, priority 2010, dated 2015).
# Tests used:
# [1] = system: RCC4; assay: XTT cell viability assay in RCC4 cells (VHL-deficient renal carcinoma); format: cell-based; settings: four days drug exposure
# Description: (§1) Cell Culture. RCC4 parental and RCC4 with VHL-reintroduced (RCC4/VHL), SN12C and SN12C-CSCG-VHL shRNA were maintained in DMEM supplemented with 10% FCS.
# (§2) Cell Viability Assays. For 2,3-bis[2-methoxy-4-nitro-5-sulfophenyl]-2H-tetrazolium-5-carboxanilide (XTT) assays, five thousand cells were plated in 96-well plates. The next day, vehicle (DMSO) or drug was added by serial dilution. Four days later, media were aspirated, XTT solution (0.3 mg/ml of XTT (Sigma), […] N-methyl dibenxopyrazine methyl sulfate (Simga) in phenol red-free media) was added, and the plates were incubated at 37° C. for 1-2 hours. Metabolism of XTT was quantified by measuring the absorbance at 450 nm IC50s were calculated using linear interpolation. For clonogenic survival assays, three hundred cells were plated per 60 mm tissue culture dish. The cells were allowed to attach overnight and then treated with vehicle or drug for 14 days. Colonies were fixed and stained with crystal violet (0.1% crystal violet in 95% ethanol). All conditions were measured in triplicate and each experiment was done in duplicate or triplicate. To determine necrosis, cells were treated with drug for a given time point. Media and cells were collected, centrifugated, and resuspended in 0.4% trypan blue (Invitrogen). Live and dead cells were counted on a hematocytometer.
# (§3) The designation A reflects an IC50 of <1 nM; B reflects an IC50 ranging from 1 to 20 nM; and C is an IC50 of >20 nM. The designation “a” reflects a ratio of RCC4/RCC-VHL+ranging from 1 to ≦10; “b” reflects from 10 to ≦100; “c” reflects a ratio of >100. Compounds I-29 have an IC50 value of ≦10 μM when tested in the above assay.
# [2] = system: RCC4 with VHL-reintroduced (RCC4/VHL); assay: XTT cell viability assay in RCC4/VHL cells, selectivity ratio versus RCC4; format: cell-based; settings: Ratio = IC50RCC4/VHL/IC50RCC4
# Description: as §1, §2, §3
Structure (SMILES),"IC50 ([1]; Homo sapiens, 96 h) [nM]",Ratio (IC50 RCC4 Proficient VHL)/ IC50 RCC4 Deficient VHL) [2],Ratio [2],IC50 [1] [nM]
"Cc1oc(-c2ccc(C(=O)NCc3cccnc3)cc2)nc1CS(=O)(=O)C1CCN(C2CCCCC2)CC1 [Example 55, 4-[4-[(1-cyclohexylpiperidine-4-sulfonyl)methyl]-5-methyl-1,3-oxazol-2-yl]-N-(pyridin-3-ylmethyl)benzamide]",< 1,a (a ratio of RCC4/RCC-VHL+ranging from 1 to ≦10),–,–
"Cc1oc(-c2ccc(C(=O)NCc3cccnc3)cc2)nc1CS(=O)(=O)[C@H]1CC[C@@H](N2CCCCC2)CC1 [Example 43, 4-[5-Methyl-4-([[4-(piperidin-1-yl)cyclohexane]sulfonyl]methyl)-1,3-oxazol-2-yl]-N-(pyridin-3-ylmethyl)benzamide]",< 1,b (from 10 to ≦100),–,–
"O=C(Nc1cccnc1)c1ccc(CNS(=O)(=O)c2ccco2)cc1 [II-8, N-(3-Pyridinyl)-4-{[(2-furanylsulfonyl)amino]methyl}benzamide]",> 20,–,a (a ratio of RCC4/RCC-VHL+ranging from 1 to ≦10),–
"Cc1oc(-c2ccc(C(=O)NCc3cccnc3)cc2)nc1CS(=O)(=O)[C@H]1CC[C@@H](N)CC1 [Example 41, 4-(4-(((1s,4s)-4-aminocyclohexylsulfonyl)methyl)-5-methyloxazol-2-yl)-N-(pyridin-3-ylmethyl)benzamide]",–,b (from 10 to ≦100),–,> 20
"Cc1oc(-c2ccc(C(=O)NCc3cccnc3)cc2)nc1CS(=O)(=O)C1CCNCC1 [Example 39, 4-(5-Methyl-4-((piperidin-4-ylsulfonyl)methyl)oxazol-2-yl)-N-(pyridin-3-ylmethyl)benzamide]",> 20,b (from 10 to ≦100),–,–
"Cc1oc(-c2ccc(C(=O)NCc3cccnc3)cc2)nc1CS(=O)(=O)C1CCN(C2CCCC2)CC1 [Example 54, 4-[4-[(1-cyclopentylpiperidine-4-sulfonyl)methyl]-5-methyl-1,3-oxazol-2-yl]-N-(pyridin-3-ylmethyl)benzamide]",< 1,b (from 10 to ≦100),–,–
"Cc1oc(-c2ccc(C(=O)NCc3cccnc3)cc2)nc1CS(=O)(=O)[C@H]1CC[C@@H](N2CCCC2)CC1 [Example 42, 4-[5-methyl-4-([[4-(pyrrolidin-1-yl)cyclohexane]sulfonyl]methyl)-1,3-oxazol-2-yl]-N-(pyridin-3-ylmethyl)benzamide]",< 1,b (from 10 to ≦100),–,–
"Cc1oc(-c2ccc(C(=O)NCc3cccnc3)cc2)nc1CS(=O)(=O)[C@H]1CC[C@H](N)CC1 [Example 44, 4-(4-[[(4-Aminocyclohexane)sulfonyl]methyl]-5-methyl-1,3-oxazol-2-yl)-N-(pyridin-3-ylmethyl)benzamide]",> 20,b (from 10 to ≦100),–,–
"Cc1oc(-c2ccc(C(=O)NCc3cccnc3)cc2)nc1CS(=O)(=O)[C@@H]1CC[C@H](N2CCCC2)C1 [Example 51, 4-[5-Methyl-4-([[(1R,3S)-3-(pyrrolidin-1-yl)cyclopentane]sulfonyl]methyl)-1,3-oxazol-2-yl]-N-(pyridin-3-ylmethyl)benzamide]",< 1,b (from 10 to ≦100),–,–
"Cc1oc(-c2ccc(C(=O)NCc3cccnc3)cc2)nc1CS(=O)(=O)[C@H]1CC[C@H](N2CCCC2)C1 [Example 48, 4-[5-Methyl-4-([[(1S,3S)-3-(pyrrolidin-1-yl)cyclopentane]sulfonyl]methyl)-1,3-oxazol-2-yl]-N-(pyridin-3-ylmethyl)benzamide]",< 1,b (from 10 to ≦100),–,–
"Cc1oc(-c2ccc(C(=O)NCc3cccnc3)cc2)nc1CS(=O)(=O)[C@H]1CC[C@H](N2CCCC2)CC1 [Example 45, 4-[5-Methyl-4-([[4-(pyrrolidin-1-yl)cyclohexane]sulfonyl]methyl)-1,3-oxazol-2-yl]-N-(pyridin-3-ylmethyl)benzamide]",1 to 20,b (from 10 to ≦100),–,–
